Assay results: article PMC5706100 (Theranostics, 2017)
Positions of bridges follow the written chain, without caps; N, C: chain ends. No end group written: not given here.

Tests used:
[1] = system: CD31-positive plaque neovascularization; assay: Immunofluorescence of FITC-GEBP11 and CD31 in plaque tissue sections; parameters: species or system rabbit
EAhy926 cells = assay: Immunofluorescence staining of FITC-GEBP11 in hypoxia-treated cells; format: cell-based; conditions: FITC-labelled peptide, after hypoxia treatment

## CTKNSYLMC (disulfide 1-9 (inferred)) [GEBP11 peptide]
[1]; endothelial cells versus macrophages
  cell selectivity by immunofluorescence staining: selectively target endothelial cells rather than macrophages
[1]; rabbit plaque tissue sections, confocal microscopy
  co-localization with CD31 in plaque section: well co-localized with CD31-positive plaque neovascularization and vasa vasorum
EAhy926 cells
  binding affinity to EAhy926 cells: high binding affinity
